Measured values as given in patent publication US20240093150A1, “IMPROVED T-CELLS FOR CANCER THERAPY USING AMINO ACID STARVATION PATHWAYS” (UNIVERSITY HEALTH NETWORK, priority 2021, published 2024).

How the values were obtained:
P14 CD8+ T cells = assay: Flow cytometry of activated mouse CD8+ T cells treated with halofuginone (cytokines, surface markers, phosphoflow, autophagosome staining); format: cell-based; details: for IFN-γ in halo-treated cells: inhibitor concurrent with Halofuginone (3-MA 2.5 mM; Oligomycin 1 uM)
CD8+ T cells [1] = assay: Seahorse and ATP quantification in halo-treated mouse CD8+ T cells; format: cell-based; details: for enhanced OXPHOS (basal OCR) in halo-treated cells: inhibitor added concurrent with Halofuginone (3-MA 2.5 mM)
CD8+ T cells [2] = assay: Ribo-Seq / RNA-seq gene expression profiling of halo-treated CD8+ T cells; format: cell-based, mouse; details: halo vs vehicle
CD8+ T cells [3] = assay: Targeted mass spectrometry metabolic profile of halo-treated cells; format: cell-based, mouse; details: halo vs vehicle
Description: Seahorse was performed as previously described (Saibil et al., 2019). ATP quantification was performed using a commercial kit (Sigma) according to the recommended protocol. For metabolic profiling of Halo treated cells, mass spectrometry was performed on metabolites extracted from cell pellets. Briefly, cell pellets were washed and snap frozen in 1 ml 80% methanol. Samples were probe sonicated for 5 seconds, power level 3 (Fisher Scientific Model 100 Sonicator). 5 ul of internal standard (Isotopically labeled amino acids, 1.25 mM, PN MSK-A2-1.2, Cambridge Isotope Laboratories) was added to a 100 ul aliquot of supernatant. 10 ul of this solution was diluted in 990 ul of buffer containing 95% acetonitrile, 5% 20 mM ammonium carbonate (pH 9.8). Quality control samples (QCs) were prepared by pooling 100 μl of each sample. All samples including QCs, where then analyzed by selected reaction monitoring (SRM) using a Waters XBridge Amide 1.0×50 mm, 3.5 μm column and a 10 mM ammonium carbonate (pH 10) acetonitrile buffer system coupled with a Sciex Qtrap 5500 triple quadrupole linear ion trap tandem mass spectrometer. The data acquisition included 317 transitions. Data were captured using Analyst, version 1.6.2 software (Sciex); peak integration was performed using Skyline, version 4.1 (Pino et al., 2020). […]

human CD8+ T cells = assay: Human CD8+ T cells activated in the presence of halofuginone (Seahorse, flow cytometry, DMF5 TCR transduction); format: cell-based
Description: Peripheral blood mononuclear cells were obtained from healthy donors following institutional review board approval. Written informed consent was obtained from all donors who provided the samples. PBMCs were magnetically sorted for naïve CD8+ T cells (Miltenyi Biotec) and activated with CD3/CD28 Dynabeads (Invitrogen) at 1:1 ratio in complete IMDM for 5 days in the presence of Halo (12.5 ng/mL) or vehicle control. For DMF5 TCR transduction, purified naïve CD8+ T cells were stimulated with CD3/CD28 Dynabeads at 1:1 ratio in complete IMDM media and 100 IU/ml recombinant human IL-2. Two days after stimulation, T cells were infection with PG13-derived virus encoding DMF5 TCR and a truncated NGFR tag, separated by 2A sequences. Halofuginone (12.5 ng/mL) or vehicle control was added on days 0 and 2. Phenotype was analyzed on day 5.

[4] = Halo 50 ng/mL last 48 hours, vs vehicle

Cn1cnc(N)c2ncnc1-2 [3MA]
4-1BB or granzyme B expression in halo-treated cells (P14 CD8+ T cells; cultured in the presence of 3MA 2.5 mM): no difference
IFN-γ in halo-treated cells (P14 CD8+ T cells): marked reduction
OXPHOS in vehicle-treated cells (CD8+ T cells [1]; 3-MA 2.5 mM): no effect
enhanced OXPHOS (basal OCR) in halo-treated cells (CD8+ T cells [1]): entirely abrogated

NC1(C(=O)O)CC2CCC1C2 (stereo not shown) [BCH]
halo-induced p-mTOR increase in the presence of inhibitor (P14 CD8+ T cells; halo-treated cells plus BCH): reversed
expression of 4-1BB, Granzyme B and IFN-γ in halo-treated cells (P14 CD8+ T cells; inhibitor added concurrent with Halofuginone (Rapamycin 20 nM)): inhibition of expression
enhanced OXPHOS (basal OCR) in halo-treated cells (CD8+ T cells [1]): did not affect

CCOC(=O)[C@@]1(CCCCCCOc2ccc(Cl)cc2)CO1 [etomoxir]
effect on OCR in halo-treated cells (CD8+ T cells [1]; Etomoxir 4 μm injected in Seahorse): minimal effects

O=C(CC1NCCCC1O)Cn1cnc2cc(Br)c(Cl)cc2c1=O (stereo not shown) [halofuginone]
IFN-γ production (P14 CD8+ T cells; Halo 50 ng/mL for the last 48 hours of IL-2 expansion, vs vehicle): increased IFN-γ production
CD98 expression (P14 CD8+ T cells; [4]): enhanced
TNF-α and IL-2 production (P14 CD8+ T cells; [4]): to a lesser extent, increased
granzyme B expression (P14 CD8+ T cells; [4]): significant increase
polyfunctionality (co-expression of IFN-γ, TNF-α, IL-2) (P14 CD8+ T cells; [4]): increased polyfunctionality
surface expression of 4-1BB (P14 CD8+ T cells; flow cytometry, halo vs vehicle): increased percentage of cells expressing 4-1BB as well as a higher level of expression on a per cell basis
autophagy (fluorescent staining of autophagosomes) (P14 CD8+ T cells; halo-treated cells vs vehicle): increased evidence of autophagy
p-mTOR (P14 CD8+ T cells; halo-treated cells vs vehicle): increase in p-mTOR
surface markers of Tcm lineage (CD62L, CD44, CD127, CD25) (P14 CD8+ T cells; halo-treated cells, same as vehicle treated cells): CD62^Lo, CD44^Hi CD127^Lo and CD25^Hi
CD69+ CD103+ double-positive cells (P14 CD8+ T cells; halo-treated, unlike vehicle-treated control cells): induced a population of CD69^+ CD103^+ double-positive cells
ATP levels (CD8+ T cells [1]; [4]): increase
OCR (oxygen consumption rate) (CD8+ T cells [1]; [4]): increase
OCR:ECAR ratio (CD8+ T cells [1]; [4]): increase
4-1BB expression (RNA) (CD8+ T cells [2]): up-regulated
Trm-associated genes, transcriptionally or translationally (CD8+ T cells [2]): very few of the Trm-associated genes were up-regulated
electron transport chain (ETC) complex genes (CD8+ T cells [2]): increased both transcription and translation of all five complexes
genes associated with glycolysis, TCA cycle, fatty acid oxidation (CD8+ T cells [2]): Increased enrichment of genes associated with glycolysis and the TCA cycle, but not fatty acid oxidation
ribosomal-associated Bhlhe40 transcripts (CD8+ T cells [2]): marked increase
CD69 gene expression (CD8+ T cells [2]; among Trm-associated genes): one of the most upregulated genes
expression of costimulatory and co-inhibitory molecules (transcriptional, translational and protein level) (CD8+ T cells [2]; panel of markers other than 4-1BB): not enhanced
levels of amino acids (CD8+ T cells [3]): primarily up-regulated
expression of 4-1BB, Granzyme B and CD98 in TCR+ T cells (human CD8+ T cells; DMF5 TCR transduced, Halofuginone 12.5 ng/mL, day 5, majority of patients): increased expression
OXPHOS (human CD8+ T cells; Halo 12.5 ng/mL, 5 days): enhanced
expression of 4-1BB and CD98 (human CD8+ T cells; Halo 12.5 ng/mL, 5 days): increasing
transduction efficiency of the DMF5 TCR (human CD8+ T cells; Halofuginone 12.5 ng/mL added on days 0 and 2): did not inhibit

CC[C@H]1/C=C/C=C/C[C@@H](C)[C@H](O)[C@@](C)(O)C(=O)[C@@H](C)[C@H](O)[C@@H](C)C(=O)[C@@H](C)[C@H](O)[C@@H](C)/C=C/C(=O)O[C@@H]2[C@H](C)[C@H](CC1)O[C@]1(CC[C@H](C)[C@H](C[C@@H](C)O)O1)[C@H]2C [oligomycin]
IFN-γ in halo-treated cells (P14 CD8+ T cells): marked reduction
